The source of these data is patent publication US6903096B2, “Quinazoline derivatives as medicaments” (Scios, Inc., priority 1998, dated 2005).

The target of one data set is T1, p38-γ (Homo sapiens, UniProt P53778).
T1 sequence (P53778 1-367): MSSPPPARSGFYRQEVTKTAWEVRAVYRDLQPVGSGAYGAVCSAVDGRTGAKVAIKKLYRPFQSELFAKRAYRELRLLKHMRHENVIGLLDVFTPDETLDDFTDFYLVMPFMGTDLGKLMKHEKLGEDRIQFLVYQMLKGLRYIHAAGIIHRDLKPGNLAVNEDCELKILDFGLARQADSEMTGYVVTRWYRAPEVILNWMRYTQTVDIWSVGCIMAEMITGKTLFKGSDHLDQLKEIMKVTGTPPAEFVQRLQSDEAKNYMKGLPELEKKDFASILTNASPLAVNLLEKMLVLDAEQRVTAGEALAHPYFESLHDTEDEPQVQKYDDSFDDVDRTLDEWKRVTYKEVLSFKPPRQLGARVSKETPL
Kind of data set: Kinase specificity: p38-γ. The class given is biochemical. The settings on record: tested at 50 μM; approximate IC50(app)=A×i/(1−A). On the procedure: (§1) IC50 values were determined with curve-fitting plots available with common softeware packages. Approximate IC50 values were calculated using formula IC50(app)=A×i/(1−A) where A=fractional activity and i=total inhibitor concentration.
(§2) Compounds 5 and 7 were tested for their specificity for p38 by assessing their ability to inhibit other kinases. These compounds were tested at 50 μM and were soluble at 250 μM in 5% DMSO/95% water.

For another data set, the target named is JNK1 (Homo sapiens, UniProt P45983). Kind of data set: Kinase specificity: JNK1. It counts as biochemical. Particulars: tested at 50 μM; approximate IC50(app)=A×i/(1−A). On the procedure:
as §1, §2

The next data set has as its target PKA (Homo sapiens, UniProt P17612). Nature of the data set: Kinase specificity: PKA. It counts as biochemical. The settings on record: tested at 50 μM; approximate IC50(app)=A×i/(1−A). On the procedure: as §1, §2
The target of a further data set is PKC. Kind of data set: Kinase specificity: PKC. The settings on record: tested at 50 μM; approximate IC50(app)=A×i/(1−A). The class given is biochemical. On the procedure:
as §1, §2

Another data set addresses DNA-dep PK (PKD) (Homo sapiens, UniProt P78527). Kind of data set: Kinase specificity: DNA-dep PK. The class given is biochemical. The settings on record: tested at 50 μM; approximate IC50(app)=A×i/(1−A). On the procedure: as §1, §2
The target in the next data set is cck2. Nature of the data set: Kinase specificity: cck2. The class given is biochemical. The settings on record: tested at 50 μM; approximate IC50(app)=A×i/(1−A). On the procedure:
as §1, §2

The next data set deals with EGF-R (Homo sapiens, UniProt P00533). Nature of the data set: Kinase specificity: EGF-R. The class given is biochemical. The settings on record: tested at 50 μM; approximate IC50(app)=A×i/(1−A). On the procedure: as §1, §2
Chain of EGF-R (P00533 25-1210, species assumed): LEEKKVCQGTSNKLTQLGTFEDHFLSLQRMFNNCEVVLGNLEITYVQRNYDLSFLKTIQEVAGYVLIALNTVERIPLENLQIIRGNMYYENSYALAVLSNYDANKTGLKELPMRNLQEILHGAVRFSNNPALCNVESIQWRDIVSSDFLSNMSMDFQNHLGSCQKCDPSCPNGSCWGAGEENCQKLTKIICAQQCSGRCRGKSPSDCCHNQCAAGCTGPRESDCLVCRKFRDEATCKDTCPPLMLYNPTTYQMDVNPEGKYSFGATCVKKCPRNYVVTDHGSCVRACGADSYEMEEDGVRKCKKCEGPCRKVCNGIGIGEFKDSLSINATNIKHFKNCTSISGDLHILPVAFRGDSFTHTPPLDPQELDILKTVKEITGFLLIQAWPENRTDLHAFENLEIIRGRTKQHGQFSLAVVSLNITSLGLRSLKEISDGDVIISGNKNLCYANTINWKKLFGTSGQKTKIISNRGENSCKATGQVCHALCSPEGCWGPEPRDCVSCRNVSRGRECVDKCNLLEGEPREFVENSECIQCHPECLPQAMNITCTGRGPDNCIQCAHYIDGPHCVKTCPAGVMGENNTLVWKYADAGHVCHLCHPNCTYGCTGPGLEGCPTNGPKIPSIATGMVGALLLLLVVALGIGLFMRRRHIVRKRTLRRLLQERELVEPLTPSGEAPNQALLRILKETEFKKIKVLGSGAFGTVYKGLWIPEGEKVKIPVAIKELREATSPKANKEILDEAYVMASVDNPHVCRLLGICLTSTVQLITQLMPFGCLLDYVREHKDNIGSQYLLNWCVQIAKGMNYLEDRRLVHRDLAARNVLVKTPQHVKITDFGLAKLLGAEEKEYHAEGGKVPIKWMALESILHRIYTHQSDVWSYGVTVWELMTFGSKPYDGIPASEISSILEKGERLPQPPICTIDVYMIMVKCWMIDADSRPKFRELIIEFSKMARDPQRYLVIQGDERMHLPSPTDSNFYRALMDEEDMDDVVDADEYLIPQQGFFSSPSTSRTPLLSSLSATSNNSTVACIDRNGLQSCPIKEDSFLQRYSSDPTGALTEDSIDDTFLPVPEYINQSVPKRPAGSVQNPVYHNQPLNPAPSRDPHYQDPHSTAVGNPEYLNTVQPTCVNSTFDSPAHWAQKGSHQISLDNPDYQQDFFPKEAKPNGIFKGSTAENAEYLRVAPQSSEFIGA
The target in the next data set is p38-β (Homo sapiens, UniProt Q15759). Kind of data set: p38-β inhibition. Particulars: curve fitted. It counts as biochemical. On the procedure:
as §1

Data set [1] is described as follows: Solubility in 5% DMSO/95% water. The class given is physicochemical. The settings on record: aqueous with cosolvent or surfactant or cyclodextrin, read-out: soluble at. On the procedure: as §2

Molecules are shown by their SMILES. Some results are limits rather than exact numbers.

Chain of p38-β (Q15759 whole entry): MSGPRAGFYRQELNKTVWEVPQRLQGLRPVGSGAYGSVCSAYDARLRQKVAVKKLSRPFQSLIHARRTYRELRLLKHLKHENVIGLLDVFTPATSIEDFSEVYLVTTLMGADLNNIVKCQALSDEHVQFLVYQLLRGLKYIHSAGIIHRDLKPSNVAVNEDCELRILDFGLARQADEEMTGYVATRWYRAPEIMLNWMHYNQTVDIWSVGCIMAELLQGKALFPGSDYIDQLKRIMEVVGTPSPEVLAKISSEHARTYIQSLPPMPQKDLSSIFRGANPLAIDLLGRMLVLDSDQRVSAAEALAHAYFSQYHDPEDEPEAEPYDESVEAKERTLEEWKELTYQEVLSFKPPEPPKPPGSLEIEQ
Chain of JNK1 (P45983 whole entry, species assumed): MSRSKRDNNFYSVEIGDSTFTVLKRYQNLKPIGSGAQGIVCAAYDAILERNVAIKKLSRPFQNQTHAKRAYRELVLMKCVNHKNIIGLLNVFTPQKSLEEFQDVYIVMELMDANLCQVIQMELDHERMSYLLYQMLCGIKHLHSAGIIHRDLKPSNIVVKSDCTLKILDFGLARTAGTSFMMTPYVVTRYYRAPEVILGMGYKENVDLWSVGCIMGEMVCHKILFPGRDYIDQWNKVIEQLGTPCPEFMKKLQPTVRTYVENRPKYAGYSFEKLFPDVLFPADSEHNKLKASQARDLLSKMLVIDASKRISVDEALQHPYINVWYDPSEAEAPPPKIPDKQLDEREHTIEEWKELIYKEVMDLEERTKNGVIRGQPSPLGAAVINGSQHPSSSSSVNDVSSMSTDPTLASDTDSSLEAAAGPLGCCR

For `Fc1ccccc1-c1nc(Nc2ccncc2)c2ccccc2n1` [Compound 5, 2-(2-fluorophenyl)-4-(4-pyridylamino)-quinazoline], the IC50 on p38-γ was 227 µM; against JNK1, 167 µM; against PKA it was over 250 µM; against PKC, over 100 µM; against DNA-dep PK (PKD), 120 µM; against cck2, 245 µM. The 50% inhibitory concentration (IC50) is 4.2 µM against EGF-R and 0.928 µM on p38-β. Moreover, the solubility in [1] is at least 250 µM.
`c1ccc(-c2nc(Nc3ccncc3)c3ccccc3n2)cc1` [Compound 7, 2-phenyl-4-(4-pyridylamino)-quinazoline]: the 50% inhibitory concentration (IC50) is over 300 µM at p38-γ; over 300 µM against JNK1; 310 µM at PKA; over 500 µM against PKC; 240 µM against DNA-dep PK (PKD); over 500 µM against cck2. In addition, the figures for the 50% inhibitory concentration (IC50) on EGF-R and at p38-β were 34 µM and 3.65 µM, respectively. Also, the solubility in data set [1] is at least 250 µM.
